# Measurements from patent US11840686B2, “Modulation of prekallikrein (PKK) expression” (Ionis Pharmaceuticals, Inc., priority 2013, dated 2023).
# Strand notation (5' to 3'): a small letter for the sugar, then the base; units joined by * are phosphorothioate-linked, units joined directly phosphodiester-linked; [ ] holds rarer units or linkages, { } end groups; capitals alone tell only the bases. e = 2'-O-(2-methoxyethyl) (MOE); k = constrained ethyl (cEt); [5mC] = 5-methylcytosine; d = 2'-deoxy (DNA)
# Test system: human PKK mRNA
# Assay: Antisense inhibition of human PKK mRNA in HepaRG cells, 1,000 nM, MOE/deoxy/cEt oligonucleotides (Example 3)
# Type: cell-based
# Details: HepaRG cells, 1,000 nM antisense oligonucleotide, Table 29
# How it was run: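 Readout is percent PKK mRNA reduction against untreated controls, by real-time PCR (RTS3454) adjusted for total RNA via RIBOGREEN. Oligonucleotides, phosphorothioate gapmers of 16 nucleosides with cEt, MOE and deoxy sugars, were delivered at 1,000 nM by electroporation to 20,000 HepaRG cells/well for roughly 24 h.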
row,Substance,% inhibition [%]
1,548564 (antisense eT*eT*kG*d[5mC]*dT*dA*d[5mC]*dT*dT*dT*dA*d[5mC]*dA*k[5mC]*k[5mC]*eA) [compound 548564],69
2,548565 (antisense eG*eG*k[5mC]*dA*dT*dT*dA*dG*dG*dA*dT*dA*dG*kG*k[5mC]*eA) [compound 548565],63
3,548566 (antisense e[5mC]*eA*k[5mC]*dT*d[5mC]*dA*dG*dA*d[5mC]*dT*dG*dT*d[5mC]*kT*kG*eA) [compound 548566],0
4,548567 (antisense eA*eG*kA*dT*d[5mC]*d[5mC]*dG*dG*dA*dA*dT*dA*dA*k[5mC]*k[5mC]*eA) [compound 548567],67
5,548568 (eA*eT*kT*dG*dA*d[5mC]*dA*dA*d[5mC]*d[5mC]*dA*dT*d[5mC]*k[5mC]*kT*eA; antisense) [compound 548568],27
6,548569 (eA*e[5mC]*kT*d[5mC]*dA*dT*dT*dG*dG*dT*d[5mC]*dT*dA*k[5mC]*kA*eG; antisense) [compound 548569],41
7,548571 (eA*e[5mC]*kT*d[5mC]*dT*dG*dA*dG*dG*d[5mC]*d[5mC]*dT*dT*kA*kG*eG; antisense) [compound 548571],59
8,548572 (eG*e[5mC]*kA*dT*dT*dA*d[5mC]*dT*d[5mC]*dA*dG*d[5mC]*dA*kT*kG*eT; antisense) [compound 548572],63
9,548573 (e[5mC]*e[5mC]*kA*dG*dT*d[5mC]*dA*d[5mC]*d[5mC]*dA*d[5mC]*d[5mC]*dA*kT*kT*eG; antisense) [compound 548573],65
10,548574 (eG*eG*kT*d[5mC]*dT*dA*dA*d[5mC]*dT*d[5mC]*dT*dA*dA*kG*kG*eG; antisense) [compound 548574],0
11,548575 (eT*eG*kT*d[5mC]*d[5mC]*dT*dT*dT*dA*dA*dA*dG*dT*kA*kT*e[5mC]; antisense) [compound 548575],18
12,548576 (eT*e[5mC]*kA*dT*dG*dT*dG*dG*d[5mC]*dA*dA*d[5mC]*d[5mC]*kT*kG*eT; antisense) [compound 548576],41
13,548577 (eA*eA*kT*d[5mC]*dT*dG*d[5mC]*dA*d[5mC]*d[5mC]*dT*dG*dG*k[5mC]*kA*eG; antisense) [compound 548577],42
14,548578 (e[5mC]*eA*kT*dG*dG*d[5mC]*dT*dA*dT*dT*dG*d[5mC]*dT*kT*k[5mC]*e[5mC]; antisense) [compound 548578],73
15,548579 (eG*eG*kG*d[5mC]*dT*dA*dT*dA*dT*dT*dG*d[5mC]*d[5mC]*kA*kG*e[5mC]; antisense) [compound 548579],46
16,548580 (e[5mC]*e[5mC]*kA*dG*dA*dG*d[5mC]*d[5mC]*dT*dT*dG*dA*dT*k[5mC]*kA*eG; antisense) [compound 548580],36
17,548581 (eG*eG*kT*dG*dG*dG*dT*dT*dA*dT*d[5mC]*dT*dG*kA*kG*eA; antisense) [compound 548581],13
18,548582 (eT*eA*kG*d[5mC]*dT*d[5mC]*d[5mC]*dA*dT*dG*d[5mC]*dT*dG*kT*kG*eT; antisense) [compound 548582],59
19,548584 (eT*eG*kA*dT*dG*dA*dA*dG*dT*dT*d[5mC]*d[5mC]*dA*k[5mC]*k[5mC]*eT; antisense) [compound 548584],47
20,548585 (eT*eA*kG*dG*d[5mC]*dA*d[5mC]*dA*dG*dA*d[5mC]*dA*dA*k[5mC]*k[5mC]*eT; antisense) [compound 548585],33
21,548586 (eT*e[5mC]*k[5mC]*dA*dA*d[5mC]*dT*dA*d[5mC]*dA*dG*dG*dA*k[5mC]*kT*e[5mC]; antisense) [compound 548586],39
22,548587 (eT*eT*k[5mC]*dT*dG*dG*dG*dA*dA*dA*d[5mC]*dT*d[5mC]*kT*k[5mC]*eT; antisense) [compound 548587],45
23,548588 (eA*eG*k[5mC]*dT*d[5mC]*dA*d[5mC]*dA*d[5mC]*d[5mC]*d[5mC]*dA*dA*kA*kA*eA; antisense) [compound 548588],10
24,548589 (eT*e[5mC]*kT*dG*dT*dT*dA*d[5mC]*d[5mC]*dT*dT*dG*dA*kG*kG*eA; antisense) [compound 548589],40

row,Substance,% inhibition [%]
1,548590 (eT*eG*kG*dT*d[5mC]*dA*dT*dG*dT*d[5mC]*dA*dA*d[5mC]*kT*kG*eT; antisense) [compound 548590],35
2,548591 (eG*eT*kA*dA*dG*d[5mC]*d[5mC]*dT*dT*d[5mC]*dA*d[5mC]*dA*kG*kG*eG; antisense) [compound 548591],3
3,548592 (e[5mC]*eT*k[5mC]*dA*d[5mC]*d[5mC]*dA*dG*dA*dG*dT*dT*dG*kT*k[5mC]*e[5mC]; antisense) [compound 548592],7
4,548593 (e[5mC]*eA*kT*d[5mC]*d[5mC]*d[5mC]*dT*dG*dA*d[5mC]*dA*dG*dG*kT*k[5mC]*e[5mC]; antisense) [compound 548593],61
5,548594 (e[5mC]*e[5mC]*k[5mC]*dT*dT*d[5mC]*dT*dA*dA*d[5mC]*d[5mC]*dA*dA*kG*kG*eA; antisense) [compound 548594],30
6,548595 (eG*eG*kA*dT*dG*dA*dG*dA*dT*dG*d[5mC]*dA*dT*k[5mC]*k[5mC]*eA; antisense) [compound 548595],8
7,548596 (eA*eT*kG*dG*d[5mC]*dG*dG*dT*dG*dA*dA*dG*d[5mC]*kA*kG*e[5mC]; antisense) [compound 548596],20
8,548597 (eT*eG*kA*dA*dT*dA*d[5mC]*d[5mC]*dA*dT*d[5mC]*d[5mC]*d[5mC]*k[5mC]*kG*e[5mC]; antisense) [compound 548597],50
9,548598 (eG*e[5mC]*kG*d[5mC]*d[5mC]*dA*dT*d[5mC]*dT*dG*d[5mC]*d[5mC]*d[5mC]*kT*kG*eT; antisense) [compound 548598],50
10,548599 (eT*eG*kG*dG*dT*dT*dG*dG*dA*dG*dG*dA*dG*kT*kG*eG; antisense) [compound 548599],19
11,548600 (eT*eG*kG*dT*dG*dG*dT*dG*dG*dG*dA*dT*dT*kG*kG*eT; antisense) [compound 548600],53
12,548601 (eT*eT*kG*dG*dT*dG*dG*dT*dG*dG*dG*dA*dT*kT*kG*eG; antisense) [compound 548601],18
13,548602 (eG*eG*kT*dG*dG*dT*dG*dG*dA*dA*dT*dT*dG*kG*kT*eG; antisense) [compound 548602],20
14,548603 (eG*eA*kG*dA*dT*dT*dG*dG*dT*dG*dG*dT*dG*kG*kG*eT; antisense) [compound 548603],35
15,548604 (eG*eT*kG*dG*dT*dG*dG*dG*dA*dT*dT*dG*dG*kT*kG*e[5mC]; antisense) [compound 548604],22
16,548605 (eT*eG*kG*d[5mC]*dG*dG*dG*dA*dT*dT*dG*dG*dT*kG*kG*eT; antisense) [compound 548605],12
17,548606 (e[5mC]*eG*kG*dT*dG*dG*dT*dG*dG*dG*dA*dT*dT*kG*kG*eT; antisense) [compound 548606],41
18,548607 (eT*e[5mC]*kG*dG*dT*dG*dG*dT*dG*dG*dG*dA*dT*kT*kG*eG; antisense) [compound 548607],34
19,548608 (antisense eA*eT*k[5mC]*dG*dG*dT*dG*dG*dT*dG*dG*dG*dA*kT*kT*eG) [compound 548608],25
20,548609 (antisense eG*eA*kT*d[5mC]*dG*dG*dT*dG*dG*dT*dG*dG*dG*kA*kT*eT) [compound 548609],30
21,548610 (antisense eG*eG*kA*dT*d[5mC]*dG*dG*dT*dG*dG*dT*dG*dG*kG*kA*eT) [compound 548610],2
22,548611 (antisense eG*e[5mC]*kG*dG*dG*dA*dT*d[5mC]*dG*dG*dT*dG*dG*kT*kG*eG) [compound 548611],7
23,548612 (antisense eG*eG*k[5mC]*dG*dG*dG*dA*dT*d[5mC]*dG*dG*dT*dG*kG*kT*eG) [compound 548612],20

# Same assay, conditions: PKK mRNA, HepaRG cells, 1,000 nM antisense oligonucleotide; Table 31
row,Substance,% inhibition [%]
1,548613 (antisense eT*eG*kG*d[5mC]*dG*dG*dG*dA*dT*d[5mC]*dG*dG*dT*kG*kG*eT) [compound 548613],39
2,548614 (antisense eT*eG*kG*dT*dG*dG*d[5mC]*dG*dG*dG*dA*dT*d[5mC]*kG*kG*eT) [compound 548614],0
3,548615 (antisense eT*eT*kG*dG*dT*dG*dG*d[5mC]*dG*dG*dG*dA*dT*k[5mC]*kG*eG) [compound 548615],10
4,548616 (antisense eA*eT*kT*dG*dG*dT*dG*dG*d[5mC]*dG*dG*dG*dA*kT*k[5mC]*eG) [compound 548616],35
5,548617 (antisense eG*eA*kT*dT*dG*dG*dT*dG*dG*d[5mC]*dG*dG*dG*kA*kT*e[5mC]) [compound 548617],44
6,548618 (antisense eG*eT*kT*dG*dG*dT*dG*dG*d[5mC]*dG*dG*dG*dA*kT*k[5mC]*eG) [compound 548618],18
7,548619 (antisense eG*eG*kT*dT*dG*dG*dT*dG*dG*d[5mC]*dG*dG*dG*kA*kT*e[5mC]) [compound 548619],19
8,548620 (antisense eT*eG*kG*dT*dT*dG*dG*dT*dG*dG*d[5mC]*dG*dG*kG*kA*eT) [compound 548620],24
9,548621 (antisense eG*eA*kA*d[5mC]*dA*d[5mC]*dA*dT*d[5mC]*dA*dG*dG*dG*kA*kT*eT) [compound 548621],33
